Reference: patent US20170014375A1, “PHARMACEUTICAL COMPOSITION COMPRISING EFFECTIVE DOSE OF POMIFERIN FOR TREATING CANCERS” (Macau University of Science and Technology, priority 2015, published 2017)

Legend:
[1] = test system: Bax-Bak double knock out (DKO) mouse embryonic fibroblasts; assay: MTT cytotoxicity assay, Bax-Bak DKO MEFs; format: cell-based; settings: Fibroblast, 72 h, 3 days, read-out: Means of IC50
Protocol: (§1) The test compound of pomiferin is dissolved in DMSO at a final concentration of 100 mmol/L and stored at −20° C. Cytotoxicity is assessed using the 3-(4,5-dimethylthiazol-2-yl)-2,5-diphenyltetrazolium bromide assay as previously described^29. 2500 of caspase wild-type (caspase WT), caspase-3 deficient (caspase 3KO), caspase-7 deficient (caspase 7KO), caspase-3/-7 deficient (caspase 3/7 DKO), caspase-8 deficient (caspase 8KO), Bax-Bak wild-type (Bak-Bak WT) and Bax-Bak double knock out (Bak-Bak DKO) mouse embryonic fibroblasts (MEFs) are seeded on 96-well plates per well. After overnight pre-incubation, the cells are exposed to different concentrations of pomiferin (namely 100, 50, 25, 12.5, 6.25, 3.125, 1.5625, 0.78, 0.39, 0.195, 0.079, 0.039 μmol/L) for 3 days. Subsequently, 10 μL of MTT reagents is added to each well and incubated at 37° C. for 4 hours, followed by the addition of 100 μL solubilization buffer (10% SDS in 0.01 mol/L HCl) and overnight incubation. Absorbance at 585 nm is determined from each well on the following day. The percentage of cell viability is calculated using the following formula: Cell viability (%)=Cells numbertreated/Cells numberDMSO control×100. Data is obtained from three independent experiments.

[2] = test system: caspase WT, 3KO, 7KO, 3/7 DKO, 8KO, Bax-Bak WT and Bax-Bak DKO MEFs; assay: Endogenous autophagic LC3 puncta in apoptosis-resistant MEFs; format: cell-based, mouse; settings: wild-type and apoptosis-resistant MEFs; FIG. 7
Protocol: Endogenous LC3 puncta formation is quantified as previously described^2. In brief, caspase wild-type (caspase WT), caspase-3 deficient (caspase 3KO), caspase-7 deficient (caspase 7KO), caspase-3/-7 deficient (caspase 3/7 DKO), caspase-8 deficient (caspase 8KO), Bax-Bak wild-type (Bak-Bak WT) and Bax-Bak double knock out (Bak-Bak DKO) MEFs are grown on coverslips in a 6-well plate are treated with […] of pomiferin. Both wild-type and deficient MEFs are then fixed in 4% paraformaldehyde for 20 minutes at room temperature and then rinsed with PBS. After washing with PBS, the cells are then incubated with anti-LC3 (1:200) in TBST (100 mM Tris HCl, pH 7.5, 150 mM NaCl, 0.05% Tween 20 and 5% BSA) overnight at 4. After washing with PBS, the cells are incubated with anti-mouse secondary antibody (TRITC) 1:200 in TBST containing 5% BSA at 37 for 1 hrs in the dark. The coverslips are then mounted with FluorSave™ mounting media (Calbiochem, San Diego, Calif., USA) for fluorescence imaging and localization of LC3 autophagosomes are captured under the API Delta Vision Live-cell Imaging System (Applied Precision Inc., GE Healthcare Company, Washington, USA).

[3] = test system: Bax-Bak wild-type MEFs; assay: Annexin V/PI flow cytometry cell death, Bax-Bak wild-type MEFs; format: cell-based, mouse; settings: 5 μM, 24 h
Protocol: Cell death is measured using an annexin V staining kit (BD Biosciences, San Jose, Calif., USA). Briefly, Bax-Bak wild-type and Bax-Bak DKO MEFs are treated with the 5 μM pomiferin for 24 h. Cells are then harvested and analysed by multiparametric flow cytometry using FITC-Annexin V and Propidium iodide staining (BD Biosciences, San Jose, Calif., USA) according to the manufacturer's instructions. Flow cytometry is then carried out using a FACSCalibur flow cytometer (BD Biosciences, San Jose, Calif., USA). Data acquisition and analysis is performed with CellQuest (BD Biosciences, San Jose, Calif., USA). Data are obtained from three independent experiments.

[4] = test system: AMPK-mTOR signaling in HeLa cancer cells; assay: Western blot of mTOR signaling marker proteins (P-AMPK, P-p70S6K); format: cell-based, human; settings: FIG. 3A
Protocol: HeLa cancer cells treated with indicated time and concentrations of pomiferin are harvested and lysed in RIPA buffer (Cell Signaling). The cell lysates are then resolved by SDS-PAGE. After electrophoresis, the proteins from SDS-PAGE are transferred to nitrocellulose membrane which is then blocked with 5% non-fat dried milk for 60 minutes. The membrane is then incubated with P-p70S6K, p70S6K, P-AMPK, AMPK and actin primary antibodies (1:1000) in TBST overnight at 4° C. respectively. After that, the membrane is further incubated with HRP-conjugated secondary antibodies for 60 minutes. Finally, protein bands are visualized by using the ECL Western Blotting Detection Reagents (Invitrogen).

[5] = test system: caspase-8 deficient (caspase 8KO) mouse embryonic fibroblasts; assay: MTT cytotoxicity assay, caspase 8KO MEFs; format: cell-based; settings: Fibroblast, 72 h, 3 days, read-out: Means of IC50
Protocol: as §1

[6] = target: T1, Ca2+ ATPase (SERCA1A) (Oryctolagus cuniculus, UniProt P04191); assay: Measurement of SERCA activity (enzyme-coupled ATPase assay); format: biochemical; settings: rabbit skeletal muscle SR membranes; FIG. 5B
T1 construct: (SERCA1A) is prepared from female rabbit hind leg muscle; from tissue; host or cells: female rabbit hind leg (skeletal) muscle, sarcoplasmic reticulum membranes
T1 sequence (P04191 1-994 isoform P04191-2): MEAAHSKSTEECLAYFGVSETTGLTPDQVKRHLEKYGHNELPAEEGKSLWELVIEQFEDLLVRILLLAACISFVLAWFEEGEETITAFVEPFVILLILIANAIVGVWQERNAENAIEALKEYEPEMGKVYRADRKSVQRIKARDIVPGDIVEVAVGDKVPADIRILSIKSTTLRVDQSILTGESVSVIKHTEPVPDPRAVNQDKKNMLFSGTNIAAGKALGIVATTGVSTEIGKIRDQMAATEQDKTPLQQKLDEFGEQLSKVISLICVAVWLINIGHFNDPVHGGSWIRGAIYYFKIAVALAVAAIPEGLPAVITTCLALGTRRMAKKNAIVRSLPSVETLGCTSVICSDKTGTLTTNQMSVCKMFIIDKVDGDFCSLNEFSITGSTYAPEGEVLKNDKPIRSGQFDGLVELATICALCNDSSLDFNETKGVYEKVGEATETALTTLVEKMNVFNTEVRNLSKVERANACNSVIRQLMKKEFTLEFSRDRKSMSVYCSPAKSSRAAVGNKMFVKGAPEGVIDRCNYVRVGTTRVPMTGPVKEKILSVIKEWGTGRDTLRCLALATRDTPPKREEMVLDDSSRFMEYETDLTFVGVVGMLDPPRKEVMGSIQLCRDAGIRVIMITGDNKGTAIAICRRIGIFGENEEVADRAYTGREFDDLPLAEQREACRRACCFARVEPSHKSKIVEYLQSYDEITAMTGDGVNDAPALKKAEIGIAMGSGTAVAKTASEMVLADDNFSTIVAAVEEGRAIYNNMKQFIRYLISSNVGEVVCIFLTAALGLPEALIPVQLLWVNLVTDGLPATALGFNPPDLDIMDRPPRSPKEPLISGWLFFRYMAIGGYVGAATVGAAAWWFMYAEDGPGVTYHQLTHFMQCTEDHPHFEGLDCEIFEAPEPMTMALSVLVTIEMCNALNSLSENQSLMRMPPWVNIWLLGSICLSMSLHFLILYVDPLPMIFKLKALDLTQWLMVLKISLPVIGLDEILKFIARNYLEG
Protocol: Purified Ca^2+ ATPase (SERCA1A) is prepared from female rabbit hind leg muscle^27. ATPase activity is determined using the enzyme-coupled method utilizing pyruvate kinase and lactate dehydrogenase as previously described in Michelangeli et al. (1990). All SERCA inhibition data are fitted to the allosteric dose versus effect equation using Fig P (Biosoft):
Activity=minimum activity+(maximum activity−minimum activity)/(1+([I]/IC50)P).

[7] = test system: caspase wild-type (caspase WT) mouse embryonic fibroblasts; assay: MTT cytotoxicity assay, caspase WT MEFs; format: cell-based; settings: Fibroblast, 72 h, 3 days, read-out: Means of IC50
Protocol: as §1

[8] = test system: HCT116 p53+/− (heterozygous) isogenic colon cancer cells; assay: MTT cytotoxicity assay, HCT116 p53+/−; format: cell-based; settings: Homo sapiens, HCT-116, 72 h, 3 days, read-out: Means of IC50
Protocol: as §1, with “4000” for “2500”, “drug-resistant HCT-116 p53+/+, HCT-116 p53−/−” for “caspase wild-type (caspase WT), caspase-3 deficient (caspase 3KO), caspase-7 deficient (caspase 7KO), caspase-3/-7 deficient (caspase 3/7 DKO), caspase-8 deficient (caspase 8KO), Bax-Bak wild-type (Bak-Bak WT)”, “HCT-116 p53−/− isogenic colon cancer cells” for “Bax-Bak double knock out (Bak-Bak DKO) mouse embryonic fibroblasts (MEFs)”, “[…])” for “μmol/L)”

## CC(C)=CCc1c2c(c3occ(-c4ccc(O)c(O)c4)c(=O)c3c1O)C=CC(C)(C)O2 [pomiferin]
[1]
  IC50: 0.986 µM
[2]
  autophagy induction (endogenous LC3 puncta): able to induce autophagy in all these wild-type and apoptosis-resistant cells
[3]
  cell death: ~40%
[4]
  p70S6K phosphorylation (mTOR downstream): concomitant reduction
  phosphorylation of AMPK: activate the phosphorylation of AMPK in a time dependent manner
[5]
  IC50: 4.98 µM
[6]
  SERCA1A pump inhibition: inhibited by pomiferin in a dose-dependent manner
[7]
  IC50: 7.63 µM
[8]
  IC50: 5.58 µM
